pEC50: −log10 of the molar value.
Target: human activated kallikrein enzyme (Homo sapiens, UniProt P03952)
Assay: Plasma kallikrein inhibition, fluorogenic PFR-AMC substrate, 500 pM activated kallikrein format
Assay type: biochemical
Details: 500 pM activated kallikrein, 300 uM PFR-AMC, 30 min preincubation, 10 min reaction; read-out: Primary Dose Response Assay: Average EC50
Summary of the method: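 500 pM enz + cpd, 30 min RT preinc; start w/ PFR-AMC 300 uM; 10 min RT; Ex380/Em460. Buffer: Tris 20 mM pH 7.5, EDTA 1 mM, NaCl 150 mM, PEG-400 0.1%, Triton 0.1%. EC50.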

Chain of human activated kallikrein enzyme (P03952 391-638 limits assumed): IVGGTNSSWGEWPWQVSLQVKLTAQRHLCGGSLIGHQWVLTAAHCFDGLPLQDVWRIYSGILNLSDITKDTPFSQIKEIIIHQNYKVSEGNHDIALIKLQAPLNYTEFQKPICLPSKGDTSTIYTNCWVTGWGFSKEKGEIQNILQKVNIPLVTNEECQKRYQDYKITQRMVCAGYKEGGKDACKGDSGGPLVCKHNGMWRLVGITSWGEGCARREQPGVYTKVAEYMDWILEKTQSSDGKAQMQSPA
Chain of human activated kallikrein enzyme (P03952 20-390 partner limits assumed): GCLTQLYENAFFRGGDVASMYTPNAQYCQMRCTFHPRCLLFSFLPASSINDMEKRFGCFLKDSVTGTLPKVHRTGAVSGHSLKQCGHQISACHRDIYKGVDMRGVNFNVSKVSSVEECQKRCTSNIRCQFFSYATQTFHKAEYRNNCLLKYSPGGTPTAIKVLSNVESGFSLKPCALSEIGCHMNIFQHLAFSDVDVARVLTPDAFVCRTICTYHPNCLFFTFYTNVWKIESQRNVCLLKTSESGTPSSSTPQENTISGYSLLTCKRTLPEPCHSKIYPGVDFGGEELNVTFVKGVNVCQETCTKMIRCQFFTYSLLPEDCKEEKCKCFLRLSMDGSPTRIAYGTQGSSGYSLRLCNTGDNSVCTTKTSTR

Row | pEC50 | SMILES
1 | > 9.00 | Cc1ccnc([C@H]2C[C@@H]2C(=O)Nc2cc(CCc3cn4cc(C5CC5)cc(N5CC(=O)N(C)C5=O)c4n3)cnn2)n1 [Example 667, (1S,2S)—N-(5-(2-(6-cyclopropyl-8-(3-methyl-2,4-dioxoimidazolidin-1-yl)imidazo[1,2-a]pyridin-2-yl)ethyl)pyridazin-3-yl)-2-(4-methylpyrimidin-2-yl)cyclopropane-1-carboxamide]
2 | > 9.00 | Cc1ccnc([C@H]2C[C@@H]2C(=O)Nc2nncc(N(C)Cc3cn4cc(C5CC5)cc(N5CC(=O)N(C)C5=O)c4n3)n2)n1 [Example 668, (1S,2S)—N-(5-(((6-cyclopropyl-8-(3-methyl-2,4-dioxoimidazolidin-1-yl)imidazo[1,2-a]pyridin-2-yl)methyl)(methyl)amino)-1,2,4-triazin-3-yl)-2-(4-methylpyrimidin-2-yl)cyclopropane-1-carboxamide]
3 | > 9.00 | Cc1ccnc([C@H]2C[C@@H]2C(=O)Nc2ccc(C#N)c(OCc3cn4cc(C5CC5)cc(N5CC(=O)N(C)C5=O)c4n3)c2)n1 [Example 669, (1S,2S)—N-(4-cyano-3-((6-cyclopropyl-8-(3-methyl-2,4-dioxoimidazolidin-1-yl)imidazo[1,2-a]pyridin-2-yl)methoxy)phenyl)-2-(4-methylpyrimidin-2-yl)cyclopropane-1-carboxamide]
4 | > 9.00 | CNc1nnc(NC(=O)[C@H]2C[C@@H]2c2nccc(C)n2)cc1OCc1cn2cc(C3CC3)cc(N3CC(=O)N(C)C3=O)c2n1 [Example 670, (1S,2S)—N-(5-((6-cyclopropyl-8-(3-methyl-2,4-dioxoimidazolidin-1-yl)imidazo[1,2-a]pyridin-2-yl)methoxy)-6-(methylamino)pyridazin-3-yl)-2-(4-methylpyrimidin-2-yl)cyclopropane-1-carboxamide]
5 | > 9.00 | Cc1ccnc([C@H]2C[C@@H]2C(=O)Nc2nncc(OCc3cn4cc(C5CC5)cc(N5CC(=O)N(C)C5=O)c4n3)n2)n1 [Example 671, (1S,2S)—N-(5-((6-cyclopropyl-8-(3-methyl-2,4-dioxoimidazolidin-1-yl)imidazo[1,2-a]pyridin-2-yl)methoxy)-1,2,4-triazin-3-yl)-2-(4-methylpyrimidin-2-yl)cyclopropane-1-carboxamide]
6 | > 9.00 | Cc1ccnc([C@H]2C[C@@H]2C(=O)Nc2nncc(OC(C)c3cn4cc(C5CC5)cc(N5CC(=O)N(C)C5=O)c4n3)n2)n1 (stereo partly drawn) [Example 672, (1S,2S)—N-(5-(1-(6-cyclopropyl-8-(3-methyl-2,4-dioxoimidazolidin-1-yl)imidazo[1,2-a]pyridin-2-yl)ethoxy)-1,2,4-triazin-3-yl)-2-(4-methylpyrimidin-2-yl)cyclopropane-1-carboxamide]
7 | 6.00 to 7.00 | CC(=O)OC(Cc1cn2cc(C3CC3)cc(N3CC(=O)N(C)C3=O)c2n1)c1cc(NC(=O)[C@H]2C[C@@H]2c2nccc(C)n2)nc(C)n1 (stereo partly drawn) [Example 673, 2-(6-cyclopropyl-8-(3-methyl-2,4-dioxoimidazolidin-1-yl)imidazo[1,2-a]pyridin-2-yl)-1-(2-methyl-6-((1S,2S)-2-(4-methylpyrimidin-2-yl)cyclopropane-1-carboxamido)pyrimidin-4-yl)ethyl acetate]
8 | 7.00 to 8.00 | Cc1ccnc([C@H]2C[C@@H]2C(=O)Nc2cc(C(O)Cc3cn4cc(C5CC5)cc(N5CC(=O)N(C)C5=O)c4n3)nc(C)n2)n1 (stereo partly drawn) [Example 674, (1S,2S)—N-(6-(2-(6-cyclopropyl-8-(3-methyl-2,4-dioxoimidazolidin-1-yl)imidazo[1,2-a]pyridin-2-yl)-1-hydroxyethyl)-2-methylpyrimidin-4-yl)-2-(4-methylpyrimidin-2-yl)cyclopropane-1-carboxamide]
9 | > 9.00 | Cc1ccnc([C@H]2C[C@@H]2C(=O)Nc2cc(F)cc(OCc3cn4cc(C5CC5)cc(N5CC(=O)N(C)C5=O)c4n3)n2)n1 [Example 675, (1S,2S)—N-(6-((6-cyclopropyl-8-(3-methyl-2,4-dioxoimidazolidin-1-yl)imidazo[1,2-a]pyridin-2-yl)methoxy)-4-fluoropyridin-2-yl)-2-(4-methylpyrimidin-2-yl)cyclopropane-1-carboxamide]
10 | > 9.00 | Cc1ccnc([C@H]2C[C@@H]2C(=O)Nc2cc(OCc3cn4cc(C5(F)CC5)cc(N5CC(=O)N(C)C5=O)c4n3)cnn2)n1 [Example 676, (1S,2S)—N-(5-((6-(1-fluorocyclopropyl)-8-(3-methyl-2,4-dioxoimidazolidin-1-yl)imidazo[1,2-a]pyridin-2-yl)methoxy)pyridazin-3-yl)-2-(4-methylpyrimidin-2-yl)cyclopropane-1-carboxamide]
11 | > 9.00 | Cc1ccnc([C@H]2C[C@@H]2C(=O)Nc2cc(OCc3cn4cc(C5CC5)cc(N5CC(=O)N(C)C5=O)c4n3)c(CO)nn2)n1 [Example 677, (1S,2S)—N-(5-((6-cyclopropyl-8-(3-methyl-2,4-dioxoimidazolidin-1-yl)imidazo[1,2-a]pyridin-2-yl)methoxy)-6-(hydroxymethyl)pyridazin-3-yl)-2-(4-methylpyrimidin-2-yl)cyclopropane-1-carboxamide]
12 | 8.00 to 9.00 | CC(=O)N1CCN(c2cc(C3CC3)cn3cc(CNc4cc(NC(=O)[C@H]5C[C@@H]5c5cccc(Cl)c5)ncn4)nc23)CC1 [Example I-1, (1S,2S)—N-(6-(((8-(4-acetylpiperazin-1-yl)-6-cyclopropylimidazo[1,2-a]pyridin-2-yl)methyl)amino)pyrimidin-4-yl)-2-(3-chlorophenyl)cyclopropane-1-carboxamide]
13 | 8.00 to 9.00 | COC(=O)C1CN(c2cc(C3CC3)cn3cc(CNc4cc(NC(=O)[C@H]5C[C@@H]5c5cccc(Cl)c5)ncn4)nc23)CCN1C (stereo partly drawn) [Example I-8, methyl 4-(2-(((6-((15,2S)-2-(3-chlorophenyl)cyclopropane-1-carboxamido)pyrimidin-4-yl)amino)methyl)-6-cyclopropylimidazo[1,2-α]pyridin-8-yl)-1-methylpiperazine-2-carboxylate]
14 | 8.00 to 9.00 | O=C(Nc1cc(NCc2cn3cc(C4CC4)cc(N4CC5(C4)CN(C4CC4)C5)c3n2)ncn1)[C@H]1C[C@@H]1c1cccc(Cl)c1 [Example I-12, (1S,2S)-2-(3-chlorophenyl)-N-(6-(((6-cyclopropyl-8-(6-cyclopropyl-2,6-diazaspiro[3.3]heptan-2-yl)imidazo[1,2-a]pyridin-2-yl)methyl)amino)pyrimidin-4-yl)cyclopropane-1-scarboxamide]
15 | 7.00 to 8.00 | COc1ccc(CN2C(=O)CN(c3cc(C4CC4)cn4cc(CNc5ccnc(NC(=O)[C@H]6C[C@@H]6c6cccc(Cl)c6)c5)nc34)C2=O)cc1 [Example I-22, (1S,2S)-2-(3-chlorophenyl)-N-(4-(((6-cyclopropyl-8-(3-(4-methoxybenzyl)-2,4-dioxoimidazolidin-1-yl)imidazo[1,2-a]pyridin-2-yl)methyl)amino)pyridin-2-yl)cyclopropane-1-carboxamide]
16 | 7.00 to 8.00 | O=C(Nc1cc(NCc2cn3cc(C4CC4)cc(N4CC(F)C4)c3n2)ncn1)[C@H]1C[C@@H]1c1cccc(Cl)c1 [Example I-145, (1S,2S)-2-(3-chlorophenyl)-N-(6-(((6-cyclopropyl-8-(3-fluoroazetidin-1-yl)imidazo[1,2-a]pyridin-2-yl)methyl)amino)pyrimidin-4-yl)cyclopropane-1-carboxamide]

— patent US20240228488A1 (TAKEDA PHARMACEUTICAL COMPANY LIMITED, priority 2021, published 2024)
